Results on 2 compounds are retold here after patent US10478437B2, “Combination therapy to enhance the anticancer efficacy of platinum drugs” (University of Pittsburgh-of the Commonwealth System of …, priority 2014, dated 2019).

What all share (format): cell-based, human
Series [1] relates to cisplatin-resistant ovarian cancer cell line A2780cis. Briefly: CellTiter-Blue cell viability assay, compound alone or with cisplatin or carboplatin, 24 h. As to conditions: for cell viability after combination with carboplatin compared to carboplatin alone / viability at 10 µM / viability at 20 µM / viability at 50 µM / Survival (%) of cells with compound and carboplatin (200 μM) / survival (%) of cells with compound and cisplatin (20 μM): 24 h; for cell viability after combination with carboplatin compared to carboplatin alone: FIG. 6; for viability at 10 µM / viability at 20 µM / viability at 50 µM: Homo sapiens, A2780cis, untreated cells = 100%, read-out: survival (%) of cells with compound alone; for viability at 10 µM: compound 10 μM; for viability at 20 µM: compound 20 μM; for viability at 50 µM: compound 50 μM. Here is the method: Data were expressed as mean±standard deviation. A Student's t test was used for the comparisons between the treatment with the combination of analogs with cisplatin and with analogs alone. P<0.05 was considered statistically significant. Combination index was calculated using CompuSyn software. A value of 0.3-0.7 for the combination index indicates synergism, 0.1-0.3 indicates strong synergism, and <0.1 indicates very strong synergism (Chou, 2006).
To further validate the activity of the identified 11 active compounds (see FIG. 3), a CellTiter-Blue cell viability assay was performed with increasing concentrations (10 μM, 20 μM and 50 μM) of the disclosed compounds (see FIG. 4 and Table 5). Cisplatin resistant ovarian cancer cells (A2780cis) were treated with a disclosed compound alone, cisplatin alone or a combination of a compound with cisplatin for 24 h to determine the effects of the compounds on cell viability.
Analysis of the effect of the disclosed compounds with another platinum-containing compound, carboplatin, was performed. A2780cis cells were treated with carboplatin alone or with the combination of carboplatin and the disclosed compounds at indicated concentrations for 24 h followed by the analysis of cell viability.

For series [2], the system named is A2780cis cells. Briefly: Western blot of caspase/PARP cleavage, Noxa induction, RPA32 and H2AX phosphorylation. The settings on record: compound 20 μM + cisplatin 20 μM, 20 h, FIG. 7B; in words. The procedure: Whole cell lysate was prepared by lysing cells in cell lysis buffer (Cell signaling technology) containing complete protease inhibitor (Roche). Cell lysates were then cleared at 15,000 rpm for 15 min at 4° C. The protein content was quantified using a Bio-Rad Protein Assay kit (Bio-Rad Laboratories, Hercules, Calif.). The equal amount of protein was separated on Tris-glycine gels (Invitrogen). The separated proteins were blotted onto a polyvinylidene difluoride membrane and blocked overnight at 4° C. in phosphate-buffered saline containing 0.1% Tween 20 and 10% nonfat dry milk (blocking buffer). Membranes were incubated with primary antibodies in blocking buffer overnight at 4° C. Primary antibodies used were: β-actin from Sigma; Bax, Bak, Caspase-9 and cleaved Caspase-3 from Cell Signaling Technology; phospho-Histone H2AX (Ser 139) and Noxa from Millipore. Membranes were then washed and incubated in peroxidase conjugated anti-rabbit IgG (Sigma) or anti-mouse IgG (Sigma) secondary antibody for 1 h at room temperature. Membranes were developed using SuperSignal West Femto Maximum Sensitivity Substrate (Thermo Fisher Scientific).
A2780cis cells were treated with cisplatin alone, compounds alone or in combination with cisplatin at indicated concentrations for 20 h to analyze apoptotic cell death in response to treatment. […] Expression and cleavage of several major caspases (Caspase-8, Caspase-9 and Caspase-3), as well as poly(ADP-ribose) polymerase (PARP) and NOXA. A2780cis cells were treated with cisplatin (20 μM) alone, compounds (20 μM) alone or in combination with cisplatin for 20 h.
To determine the effects of the compounds on DNA damage and mitochondrial dysfunction, A2780cis cells were treated with cisplatin (20 μM) alone or the combination of cisplatin with 20 μM of compound 1-6. Replication protein A (RPA) is a single strand-specific DNA-binding protein, consisting of three subunits, RPA70, RPA32, and RPA14. RPA32 is phosphorylated in response to DNA replication stress. Western blot analysis was performed to evaluate the phosphorylation of RPA32 and histone H2AX, the induction of Noxa expression and cleavage of caspase-3. […] A2780cis cells were treated with cisplatin (50 μM) alone, 1-6 (50 μM) alone or the combination of cisplatin and compound 1-6 for 4 h. The oxygen consumption rate (OCR) was measured by a Seahorse extracellular flux analyzer.
For orientation: A western blot detects proteins with antibodies after separation by electrophoresis.

In series [3] the test system is cisplatin-resistant ovarian cancer cell line A2780cis. Briefly: Caspase-3/7 activity assay (apoptotic cell death), compound alone or with cisplatin. The settings on record: for activation of Caspase-3/7 in combination with cisplatin compared to mdivi-1: FIG. 7A and Table 6; for activation of Caspase-3/7 in combination with cisplatin compared to mdivi-1 / activity in the screen (Caspase-3/7 activity and microscopic examination), active / inactive / Caspase-3/7 activity upon combination with cisplatin compared to cisplatin alone or compound alone: in words; for caspase-3/7 activity (Lum), compound with cisplatin: compound 20 μM with 20 μM cisplatin; for caspase-3/7 activity (Lum), compound with cisplatin / caspase-3/7 activity (Lum), compound alone / caspase-3/7 activity (Lum) with compound and cisplatin (20 μM) / caspase-3/7 activity (Lum) with compound alone: 20 h; for caspase-3/7 activity (Lum) with compound and cisplatin (20 μM) / caspase-3/7 activity (Lum) with compound alone: Table 6; for caspase-3/7 activity (Lum) with compound alone: untreated cells 9 ± 1; for activity in the screen (Caspase-3/7 activity and microscopic examination), active / inactive: alone or in the presence of cisplatin. In short, it runs like this:
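Caspase-3/7 activity in A2780cis cells treated with compound alone or with cisplatin, luminescent Caspase-Glo 3/7 read-out. Apoptotic morphology is checked microscopically just before measurement.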

Setting [4] is: compound 10 μM + carboplatin 200 μM.
Setting [5] is: compound 10 μM + cisplatin 20 μM.
The mark [6] stands for this setting: compound 20 μM + carboplatin 200 μM.
Where [7] appears, read: compound 20 μM + cisplatin 20 μM.
Setting [8] is: compound 50 μM + carboplatin 200 μM.
The mark [9] stands for this setting: compound 50 μM + cisplatin 20 μM.
Setting [10] is: Table 1, compound 20 μM, mean ± S.D. of triplicates.
The mark [11] stands for this setting: compound 5 μM + cisplatin 20 μM.

Entries after “also recorded” stand apart in the source; their conditions may differ.

In the case of `CCCn1c(=S)[nH]c2cc(OC)c(OC)cc2c1=O` [Compound 1-8], the “cell viability after combination with carboplatin compared to carboplatin alone” value in series [1] (in words) is on record as “cell viability was reduced”. Further, in series [1], the viability at 10 µM amounted to 99.6 ± 2.9%. Further, the viability at 20 µM in series [1] is 96.3 ± 3.2%. Further, the viability at 50 µM in series [1] came to 88.4 ± 2.1%. Also, the “Survival (%) of cells with compound and carboplatin (200 μM)” value in series [1] (setting [4]) is given as 89.5 + 2.1%; in series [1] (setting [6]), 65.8 ± 3.5%; in series [1] (setting [8]), 42.5 ± 2.3%. In addition, the “survival (%) of cells with compound and cisplatin (20 μM)” value turned out to be 53.4 ± 1.5% in series [1] (setting [5]), 25.9 ± 2.3% in series [1] (setting [7]) and 17.9 ± 1.3% in series [1] (setting [9]). Moreover, in series [1] (compound 10 μM with cisplatin, FIG. 4, in words), the “potency at enhancing the cytotoxicity of cisplatin compared to mdivi-1” value is recorded as “more potent than mdivi-1”. In series [2], the “cleavage of caspases and PARP, induction of Noxa in combination with cisplatin” value is “cleavage of Caspase-8, 9, 3, PARP and the induction of Noxa”. Also, the “activation of Caspase-3/7 in combination with cisplatin compared to mdivi-1” value in series [3] was “more effective; also recorded: more potent than mdivi-1”. Also, in series [3] (Table 1), the “caspase-3/7 activity (Lum), compound with cisplatin” value is 121 ± 4 Lum. Further, the “caspase-3/7 activity (Lum), compound alone” value in series [3] (setting [10]) stood at 14 ± 2 Lum; in series [3] (Table 2, compound 20 μM) it was 14 ± 2 Lum. The “caspase-3/7 activity (Lum) with compound and cisplatin (20 μM)” value in series [3] (setting [11]) is 38 ± 4 Lum; in series [3] (setting [5]) it was 72 ± 1 Lum; in series [3] (setting [7]), 93 ± 4 Lum. Also, the “caspase-3/7 activity (Lum) with compound alone” value in series [3] (compound 5 μM) amounted to 10 ± 1 Lum; in series [3] (compound 10 μM), 10 ± 1 Lum; in series [3] (compound 20 μM), 11 ± 1 Lum. In addition, in series [3], the “activity in the screen (Caspase-3/7 activity and microscopic examination), active / inactive” value is on record as “active”. Further, the “Caspase-3/7 activity upon combination with cisplatin compared to cisplatin alone or compound alone” value in series [3] is “increase in Caspase-3/7 activity”.
Regarding `Cc1ccc(-n2c(=S)[nH]c3ccccc3c2=O)cc1F` [Compound 1-17], the “cell viability after combination with carboplatin compared to carboplatin alone” value in series [1] (in words) is listed as “cell viability was reduced”. The viability at 10 µM in series [1] is 101 ± 2.9%. Also, the viability at 20 µM in series [1] is 101 ± 2.1%. Moreover, the viability at 50 µM in series [1] was 101 ± 1.4%. In addition, the figures for the “Survival (%) of cells with compound and carboplatin (200 μM)” value in series [1] (setting [4]), in series [1] (setting [6]) and in series [1] (setting [8]) were 90.7 ± 0.9%, 79.3 ± 3.9% and 69.7 ± 4.1%, respectively. Moreover, the “survival (%) of cells with compound and cisplatin (20 μM)” value came to 63.0 ± 1.1% in series [1] (setting [5]), 39.6 ± 3.0% in series [1] (setting [7]) and 26.7 ± 1.4% in series [1] (setting [9]). In series [2], the “cleavage of caspases and PARP, induction of Noxa in combination with cisplatin” value was “cleavage of Caspase-8, 9, 3, PARP and the induction of Noxa”. Besides, the “activation of Caspase-3/7 in combination with cisplatin compared to mdivi-1” value in series [3] is “more effective; also recorded: more potent than mdivi-1”. In addition, in series [3] (Table 1), the “caspase-3/7 activity (Lum), compound with cisplatin” value was determined as 123 ± 5 Lum. Besides, the “caspase-3/7 activity (Lum), compound alone” value came out at 10 ± 2 Lum in series [3] (setting [10]) and 10 ± 2 Lum in series [3] (Table 2, compound 20 μM). For the same compound, the “caspase-3/7 activity (Lum) with compound and cisplatin (20 μM)” value turned out to be 34 ± 3 Lum in series [3] (setting [11]), 76 ± 7 Lum in series [3] (setting [5]) and 101 ± 6 Lum in series [3] (setting [7]). Further, the entries for the “caspase-3/7 activity (Lum) with compound alone” value in series [3] (compound 5 μM), in series [3] (compound 10 μM) and in series [3] (compound 20 μM) were 15 ± 8 Lum, 10 ± 1 Lum and 10 ± 1 Lum, respectively. The “activity in the screen (Caspase-3/7 activity and microscopic examination), active / inactive” value in series [3] was “active”. Moreover, the “Caspase-3/7 activity upon combination with cisplatin compared to cisplatin alone or compound alone” value in series [3] is recorded as “increase in Caspase-3/7 activity”.
